Literature values, collected in patent US7390507B2, “Compositions and methods for the treatment of radiation burns and other traumatic skin conditions” (priority 2004, dated 2008).

Experiments:
[1] = in vivo

O=C(O)CCCCC1CCSS1 (stereo not drawn) [Alpha-Lipoic Acid]
effect on skin ageing / wrinkles [1]: some effect

NCCCNCCSP(=O)(O)O [amifostine]
dermato-cytoprotective effect (retrospective analysis): significant dermato-cytoprotective effect

O=C1O[C@H]([C@@H](O)CO)C(O)=C1O [topical Vitamin C, Vitamin C]
improvement in the results of irradiated breast tissue (human, in vivo): without improvement
